Measurements reported in US20240343720A1, “AAK1 INHIBITOR AND USE THEREOF” (Xizang Haisco Pharmaceutical Co., Ltd., priority 2021, published 2024).

Tests used:
AAK1 = AAK1 (Homo sapiens (Human), UniProt Q2M2I8); assay: In vitro AAK1 enzyme activity assay (ADP-Glo); format: biochemical; conditions: read-out: Inhibitory activity against AAK1 IC50
Protocol: Compound stock solution (concentration: 10 mM, dissolved in DMSO) was diluted with DMSO to 0.2 mM and then diluted with DMSO in 5-fold gradient to obtain compound solutions with 10 concentrations. Subsequently, the compound solutions with different concentrations were diluted 50-fold in 1×kinase reaction buffer (containing 40 mM Tris, 20 mM MgCl2, 0.1% BSA and 0.5 mM DTT) for later use. AAK1 (Signalchem, Cat #A01-11G-10) was diluted with 1×kinase reaction buffer to 2-fold the final concentration (final concentrations: 30 nM and 28 nM). AAK1 was added to a 384-well white plate at 2 μL/well, and the compounds were then added at 1 μL/well. The plate was sealed with a plate-sealing film, centrifuged at 1000 rpm for 30 seconds and then placed at room temperature for 10 minutes. A mixed solution of ATP (Promega, Cat #V914B) and substrate Micro2 (GenScript, Cat #PE0890) was formulated at 4-fold the final concentration (for AAK1, the corresponding final concentrations of ATP: 15 μM and 5 μM, and the corresponding final concentration of Micro2: 0.1 mg/mL). To the reaction plate was added the mixed solution of ATP and the substrate at 1 μL/well. The plate was sealed with a plate-sealing film and centrifuged at 1000 rpm for 30 seconds. The reaction was carried out at room temperature for 60 minutes (AAK1). ADP-Glo (Promega, Cat #V9102) was transferred to the 384-well plate at 4 μL/well and centrifugation was carried out at 1000 rpm for 1 minute. The mixture was incubated at 25° C. for 40 minutes. A detection solution was transferred to the 384-well plate at 8 μL/well and centrifugation was carried out at 1000 rpm for 1 minute. The resulting mixture was incubated at 25° C. for 40 minutes. The RLU (Relative luminescence unit) signal values were read using a Biotek multilable microplate reader and the percent inhibition was calculated according to the following formula: [1−(LUMcompound−LUMpositive control)/(LUMnegative control−LUMpositive control)]×100. IC50 values were calculated using Graphpad 7.0 software using a four-parameter non-linear fit equation.

[1] = target: hERG potassium ion channel (Homo sapiens (Human), UniProt Q12809); assay: Test for hERG potassium ion channel (manual whole cell patch-clamp); format: cell-based; conditions: for IC50: CHO cells stably expressing hERG, read-out: IC50 (hERG potassium channel current); for inhibition at 40 µM: human, CHO cells stably expressing hERG potassium channel, read-out: Inhibition rate at the highest concentration tested (hERG potassium channel current)
Source text: Experimental platform: electrophysiological manual patch-clamp system
Cell line: Chinese hamster ovary (CHO) cell lines stably expressing hERG potassium ion channel
Experimental method: In CHO (Chinese Hamster Ovary) cells stably expressing hERG potassium channel, whole cell patch-clamp technique was used to record hERG potassium channel current at room temperature. The glass microelectrode was made of a glass electrode blank (BF150-86-10, Sutter) by a puller. The tip resistance after filling the liquid in the electrode was about 2-5 MΩ. The glass microelectrode can be connected to the patch-clamp amplifier by inserting the glass microelectrode into an amplifier probe. The clamping voltage and data recording were controlled and recorded by the pClamp 10 software through a computer. The sampling frequency was 10 kHz, and the filtering frequency was 2 kHz. After the whole cell records were obtained, the cells were clamped at −80 mV, and the step voltage that induced the hERG potassium current (IhERG) was depolarized from −80 mV to +20 mV for 2 s, then repolarized to −50 mV, and returned to −80 mV after 1 s. This voltage stimulation was given every 10 s, and the administration process was started after the hERG potassium current was confirmed to be stable (at least 1 minute). The compound was administered for at least 1 minute at each test concentration, and at least 2 cells (n≥2) were tested at each concentration.
Data processing: Data analysis processing was carried out by using pClamp 10, GraphPad Prism 5 and Excel software. The inhibition degree of hERG potassium current (peak value of hERG tail current induced at −50 mV) at different compound concentrations was calculated by the following formula: […]
wherein, Inhibition % represents the percentage of inhibition of hERG potassium current by the compound, and I and Io represent the amplitude of hERG potassium current after and before dosing, respectively.
Compound IC50 was calculated using GraphPad Prism 5 software by fitting according to the following equation: […]
Among the equation, X represents the Log value of the tested concentration of the test sample, Y represents the inhibition percentage at the corresponding concentration, and Bottom and Top represent the minimum and maximum inhibition percentage, respectively.

[2] = tested on: SNL-induced mouse model of neuropathic pain; assay: Spinal nerve ligation (SNL)-induced mouse model of neuropathic pain, mechanical pain threshold (MPT); format: in vivo, C57BL/6J mice; conditions: for Time at which analgesic efficacy reached the peak after the administration / Effect on pain threshold (MPT) of mice after SNL modelling: 10 mg/kg intragastrically, single administration; for Effect on pain threshold (MPT) of mice after SNL modelling: 1, 3 and 6 hours after administration
Source text: Male C57BL/6J mice (8 weeks old) purchased from Jinan Pengyue Experimental Animal Breeding Co., Ltd. were adaptively raised for one week and then the models were established. The specific establishment method comprises the following steps: • 1) disinfecting the surgical instrument and ligature; • 2) anesthetizing the mice with isoflurane and then placing the mice on the operating table in the prone position; • 3) shaving the fur near the hip bones of the mice and preparing the skin, and making an incision of about 2 cm along the spine; • 4) isolating the fascia along the spine, performing blunt dissection of the muscles, and exposing the transverse process of L5; • 5) carefully cutting the transverse process of L5 with forceps and exposing the L5 spinal nerve; • 6) carefully isolating the L5 nerve with a glass dissecting needle, and ligating the L5 nerve with a 5-0 ligature; and • 7) suturing the muscles and skin and disinfecting same with iodophor.
The mice that were unsuccessful in modeling were eliminated the next day after modeling (marker for successful modeling: mice with their hind paws curled up). After modeling, the mice were stroked for 3 to 5 minutes every day to ensure that the animals were familiar with the experimenter, and then the mice were placed on a metal pain measuring frame for 40 to 60 minutes of adaptation. After 3 days of acclimatization, Von Frey filaments (Aesthesio®; 0.16 g, 0.4 g, 0.6 g, 1.0 g, 1.4 g and 2.0 g) were used to test the pre-administration baseline values of the animals (Ascending testing approach). Each animal was tested twice and average values were taken, with intervals of at least 5 minutes. The animals were grouped according to the baseline values (10 animals per group). After the grouping, LX-9211 (1 and 10 mg/kg), compound 3 (1 and 10 mg/kg) or vehicle (40% PEG-400+10% ethanol+15% Tween 80+35% physiological saline) were administered intragastrically. The mice were tested for the mechanical pain threshold (MPT) at 1, 3 and 6 hours after the administration. Time-MPT curve was plotted using GraphPad 8.3.0, and statistical analysis was performed.

[3] = Mouse brain/blood ratio test; format: in vivo; conditions: ICR mice, i.g. (10 mg/kg); for Kp / AUC(0-t): male, mouse, po; for Kp: brain/plasma; for AUC(0-t): plasma, read-out: Plasma AUC0-t
Protocol: 5.1 Experimental animals: Male ICR mice, 20-25 g, 9 mice/compound. Purchased from Chengdu Ddossy Experimental Animals Co., Ltd.
5.2 Experimental design: on the day of the experiment, 18 ICR mice were randomly grouped according to their body weights. The animals were fasted with water available for 12 to 14 h one day before the administration, and were fed 4 h after the administration;
After intragastric administration, whole blood and brain tissue were collected at 0.5 h, 4 h and 24 h, and the whole blood was centrifuged to separate the plasma. The brain tissue was rinsed with cold physiological saline to remove the residual blood on the surface, drained out and then homogenized. Before analysis and detection, all samples were stored at −80° C. The samples were analyzed quantitatively by LC-MS/MS.

[4] = Pharmacokinetic test in beagle dogs; format: in vivo; conditions: for AUC(0-t) / clearance / Vd: male, dog, plasma; for Vd: read-out: Vdss
Protocol: Experimental animals: male beagle dogs, about 8-11 kg, 6 beagle dogs/compound, purchased from Beijing Marshall Biotechnology Co., Ltd.
Experimental method: on the day of the experiment, 12 beagle dogs were randomly grouped according to their body weights. the animals were fasted with water available for 12 to 14 h one day before the administration, and were fed 4 h after the administration; and the administration was performed according to Table 2.
Before and after the administration, 1 ml of blood was taken from the jugular veins or limb veins, and placed in an EDTAK2 centrifuge tube. Centrifugation was performed at 5000 rpm at 4° C. for 10 min, and plasma was collected. Blood sampling time points for both the LX9211 intravenous administration group and intragastric administration group include: 0 min, 5 min, 15 min, 30 min, 1 h, 2 h, 4 h, 6 h, 8 h, 10 h, 12 h, and 24 h, and blood sampling time points for both the compound 19 intravenous administration group and intragastric administration group include: 0 min, 5 min, 15 min, 30 min, 1 h, 2 h, 4 h, 6 h, 8 h, 10 h, 12 h, 24 h, and 48 h. Before analysis and detection, all samples were stored at −80° C. The samples were analysed quantitatively by LC-MS/MS.

Sequence of hERG potassium ion channel (Q12809 whole entry): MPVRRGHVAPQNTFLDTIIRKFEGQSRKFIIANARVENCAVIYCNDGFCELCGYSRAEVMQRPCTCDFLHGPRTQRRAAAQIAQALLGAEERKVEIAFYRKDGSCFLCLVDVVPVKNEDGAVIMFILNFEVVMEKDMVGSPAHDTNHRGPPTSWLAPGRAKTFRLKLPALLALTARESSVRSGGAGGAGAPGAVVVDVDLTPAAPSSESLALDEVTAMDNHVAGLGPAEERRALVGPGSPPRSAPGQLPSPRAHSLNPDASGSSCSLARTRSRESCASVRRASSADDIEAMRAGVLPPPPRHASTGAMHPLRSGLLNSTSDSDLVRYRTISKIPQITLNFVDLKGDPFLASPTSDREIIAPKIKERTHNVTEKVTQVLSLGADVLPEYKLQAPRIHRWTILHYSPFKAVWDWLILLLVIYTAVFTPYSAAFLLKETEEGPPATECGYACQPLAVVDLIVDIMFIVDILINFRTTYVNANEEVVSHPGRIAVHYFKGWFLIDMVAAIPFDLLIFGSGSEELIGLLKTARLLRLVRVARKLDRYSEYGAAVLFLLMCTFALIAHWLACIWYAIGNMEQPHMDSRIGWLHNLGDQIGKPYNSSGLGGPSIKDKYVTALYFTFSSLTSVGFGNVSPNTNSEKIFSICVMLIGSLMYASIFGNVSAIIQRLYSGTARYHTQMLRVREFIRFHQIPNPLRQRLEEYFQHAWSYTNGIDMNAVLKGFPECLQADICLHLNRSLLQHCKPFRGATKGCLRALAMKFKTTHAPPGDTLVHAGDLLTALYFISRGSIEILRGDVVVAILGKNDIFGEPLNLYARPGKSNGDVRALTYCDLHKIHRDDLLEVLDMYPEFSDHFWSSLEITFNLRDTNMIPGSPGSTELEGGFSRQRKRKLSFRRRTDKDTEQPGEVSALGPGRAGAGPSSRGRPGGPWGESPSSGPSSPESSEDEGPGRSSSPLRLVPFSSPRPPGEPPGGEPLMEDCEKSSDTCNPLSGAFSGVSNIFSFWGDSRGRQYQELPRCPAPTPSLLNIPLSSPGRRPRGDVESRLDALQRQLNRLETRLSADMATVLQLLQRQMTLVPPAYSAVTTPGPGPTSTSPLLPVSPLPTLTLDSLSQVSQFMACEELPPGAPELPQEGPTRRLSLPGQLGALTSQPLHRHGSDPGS
Sequence of AAK1 (Q2M2I8 27-365): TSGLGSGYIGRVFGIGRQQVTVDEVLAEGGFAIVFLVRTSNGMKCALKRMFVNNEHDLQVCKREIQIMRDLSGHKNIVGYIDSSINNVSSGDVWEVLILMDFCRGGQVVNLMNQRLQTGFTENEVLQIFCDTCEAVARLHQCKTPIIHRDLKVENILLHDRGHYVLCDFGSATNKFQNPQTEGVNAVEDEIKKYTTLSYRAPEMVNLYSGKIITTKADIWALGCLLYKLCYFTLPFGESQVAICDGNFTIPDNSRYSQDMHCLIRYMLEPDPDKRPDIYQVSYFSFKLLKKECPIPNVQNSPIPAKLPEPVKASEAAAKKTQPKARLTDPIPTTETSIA

Row | IC50 (AAK1) [µM] | Brain tissue AUC0-t [3] [ng·h/g] | Kp [3] | AUC(0-t) [3] [ng·h/mL] | F ([4]; i.g. (3 mg/kg)) [%] | AUC(0-t) ([4]; iv, i.v. (1 mg/kg)) [ng·h/mL] | clearance ([4]; iv, i.v. (1 mg/kg)) [mL/min/kg] | Vd ([4]; iv, i.v. (1 mg/kg)) [L/kg] | AUC(0-t) ([4]; po, i.g. (3 mg/kg)) [ng·h/mL] | Compound | IC50 [1] [µM] | inhibition at 40 µM [1] [%] | Time at which analgesic efficacy reached the peak after the administration [2] [h] | Effect on pain threshold (MPT) of mice after SNL modelling [2] | Analgesic efficacy compared with LX-9211 ([2]; 10 mg/kg, at 3 and 6 hours after the administration)
1 | 0.0109 | 36853 | 64.5 | 572 | – | – | – | – | – | C=C(C)C[C@](C)(N)COc1ccc(-c2ccnc(C(F)F)c2)nc1C(F)F [Compound 3, (S)-1-((2′,6-bis(difluoromethyl)-[2,4′-bipyridin]-5-yl)oxy)-2,4-dimethylpent-4-en-2-amine] | 8.75 | 86.6 ± 1.77 | 3 | effectively increased the pain threshold | better efficacy than LX-9211
2 | 0.0377 | – | – | – | 113 ± 6.9 | 398 ± 94 | 39.8 ± 10 | 23.6 ± 3.8 | 1350 ± 83 | COC(=O)Nc1cc(-c2ccc(OC[C@@](C)(N)CC(C)(C)F)c(C(F)F)n2)ccn1 [Compound 19, Methyl (S)-(5-((2-amino-4-fluoro-2,4-dimethylpentyl)oxy)-6-(difluoromethyl) [2,4′-bipyridin]-2′-yl)carbamate] | 24.1 | 68.9 ± 1.8 | – | – | –
3 | – | 110424 | 16.6 | 6640 | 22.2 ± 8.1 | 751 ± 204 | 22.2 ± 7.7 | 9.08 ± 1.4 | 500 ± 183 | CC(C)C[C@](C)(N)COc1ccc(-c2ccnc(C(F)F)c2)nc1C(F)F [LX-9211, reference compound] | 1.82 | 102 ± 4.08 | 1 | effectively increased the pain threshold | –
